# Experimental data from patent US20110046235A1, “PRODUCTS COMPRISING, AND USES OF, DECARBOXYLATED PHENOLIC ACIDS DERIVED FROM CHLOROGENIC ACIDS OF COFFEE” (NESTEC S.A., priority 2008, published 2011).
# Key:
# [1] = system: Nrf2; assay: Antioxidant Responsive Element (ARE) luciferase assay; assay type: cell-based, human; settings: 24 h, AREc 32 (MCF7) cells
# Text: The pGL-8×ARE which contains eight copies of the ARE present in rat glutathione-S-transferase A2 (GSTA2) along with the pcDNA3.1 plasmid containing the neomycin selectable marker was stably transfected into human MCF7 cells (Wang et al., Cancer Res. 66, 10983-10994, 2006). ARE (antioxidant-responsive element) is the binding site of the transcription factor Nrf2 which regulates the genes involved in detoxification and endogenous defence against oxidative stress. The plasmid pGL-8×ARE contains a luciferase gene downstream of the eight Nrf2 binding sites that allows monitoring Nrf2 activity. The AREc 32 cells were seeded in 96-well microtiter plates in DMEM growth medium. After treatment with 4-vinylcatechol for 24 h firefly luciferase activity was determined.
# [2] = system: PGE2 production in HT-29 cells; assay: Prostaglandin E2 formation assay; assay type: cell-based, human; settings: 15 h then 6 h with TNF-α 10 ng/ml
# Procedure: Human colon HT-29 cells were treated with 4-vinylcatechol for 15 h followed by a co-incubation of 6 h together with a pro-inflammatory agent TNF-α (10 ng/ml). Analysis of the PGE2 production in HT-29 cells was determined using a competitive enzyme immunoassay (EIA) (Cavin et al., BBRC 327, 742-49, 2005).
compound,measurement,setting,value
C=Cc1ccc(O)c(O)c1 [4-vinylcatechol],firefly luciferase activity (induction of Nrf2 activity),[1]; 4-vinylcatechol 200 μg/ml,16 AU
same,firefly luciferase activity (induction of Nrf2 activity),[1]; 4-vinylcatechol 400 μg/ml,41 AU
same,firefly luciferase activity (induction of Nrf2 activity),[1]; 4-vinylcatechol 600 μg/ml,22 AU
same,PGE2 formation,[2]; 4-vinylcatechol 3.13 μg/ml,58 % of control
same,PGE2 formation,[2]; 4-vinylcatechol 6.25 μg/ml,46 % of control
same,PGE2 formation,[2]; 4-vinylcatechol 9.38 μg/ml,21 % of control
same,PGE2 formation,[2]; 4-vinylcatechol 15.63 μg/ml,12 % of control
same,PGE2 formation,[2]; 4-vinylcatechol 31.25 μg/ml,5 % of control
same,PGE2 formation,[2]; 4-vinylcatechol 62.5 μg/ml,2 % of control
